Assay results as given in patent US12077503B2, “Substituted cyclic amides and their use as herbicides” (FMC CORPORATION, priority 2015, dated 2024).

Assays:
Assay type in all cases: in vivo
[1] = system: sedge, umbrella (small-flower umbrella sedge, Cyperus difformis); assay: Test B flooded paddy test; settings: Flood, 250 g ai/ha
Protocol: (§1) Plant species in the flooded paddy test selected from rice (Oryra sativa), sedge, umbrella (small-flower umbrella sedge, Cyperus difformis), ducksalad (Heteranthera limosa), and barnyardgrass (Echinochloa crus-galli) were grown to the 2-leaf stage for testing. At time of treatment, test pots were flooded to 3 cm above the soil surface, treated by application of test compounds directly to the paddy water, and then maintained at that water depth for the duration of the test. Treated plants and controls were maintained in a greenhouse for 13 to 15 d, after which time all species were compared to controls and visually evaluated. Plant response ratings, summarized in Table B, are based on a scale of 0 to 100 where 0 is no effect and 100 is complete control. A dash (-) response means no test result.

[2] = system: ducksalad (Heteranthera limosa); assay: Test B flooded paddy test; settings: Flood, 250 g ai/ha, 0 to 100 scale where 0 is no effect and 100 is complete control
Protocol: as §1

[3] = system: barnyardgrass (Echinochloa crus-galli); assay: Test B flooded paddy test; settings: Flood, 250 g ai/ha, 0 to 100 scale where 0 is no effect and 100 is complete control
Protocol: as §1

rice (Oryra sativa) = assay: Test B flooded paddy test; settings: Flood, 250 g ai/ha, 0 to 100 scale where 0 is no effect and 100 is complete control
Protocol: as §1

Kochia (Kochia scoparia) [4] = assay: Test A preemergence
Source text: (§2) Seeds of plant species selected from barnyardgrass (Echinochloa crus-galli), Kochia (Kochia scoparia), ragweed (common ragweed, Ambrosia elatior), ryegrass, Italian (Italian ryegrass, Lolium multiflorum), crabgrass, large (Digitaria sanguinalis), giant foxtail (Setaria faberii), green foxtail (Setaria viridis), morningglory (Ipomoea spp.), pigweed (Amaranthus retroflexus), velvetleaf (Abutilon theophrasti), wheat (Triticum aestivum), and corn (Zea mays) were planted into a blend of loam soil and sand and treated preemergence with a directed soil spray using test chemicals formulated in anon-phytotoxic solvent mixture which included a surfactant.
(§3) At the same time, plants selected from these crop and weed species and also blackgrass (Alopecurus myosuroides), and Galium (catchweed bedstraw, Galium aparine) were planted in pots containing the same blend of loam soil and sand and treated with postemergence applications of test chemicals formulated in the same manner. Plants ranged in height from 2 to 10 cm and were in the one- to two-leaf stage for the postemergence treatment. Treated plants and untreated controls were maintained in a greenhouse for approximately 10 d, after which time all treated plants were compared to untreated controls and visually evaluated for injury. Plant response ratings, summarized in Table A, are based on a 0 to 100 scale where 0 is no effect and 100 is complete control. A dash (-) response means no test result.

[5] = system: giant foxtail (Setaria faberii); assay: Test A preemergence
Source text: as §2, §3

[6] = system: barnyardgrass (Echinochloa crus-galli); assay: Test A preemergence
Source text: as §2, §3

[7] = system: pigweed (Amaranthus retroflexus); assay: Test A preemergence
Source text: as §2, §3

[8] = system: ragweed (common ragweed, Ambrosia elatior); assay: Test A preemergence
Source text: as §2, §3

[9] = system: ryegrass, Italian (Italian ryegrass, Lolium multiflorum); assay: Test A preemergence
Source text: as §2, §3

[10] = system: Galium (catchweed bedstraw, Galium aparine); assay: Test A postemergence; settings: for Plant response rating, Galium: postemergence
Source text: as §2, §3

Kochia (Kochia scoparia) [11] = assay: Test A postemergence; settings: for Plant response rating, Kochia: postemergence
Source text: as §2, §3

[12] = system: wheat (Triticum aestivum); assay: Test A postemergence; settings: for Plant response rating, Wheat: 0 to 100 scale (0 no effect, 100 complete control)
Source text: as §2, §3

[13] = system: giant foxtail (Setaria faberii); assay: Test A postemergence; settings: for Plant response rating, Foxtail, Giant: postemergence
Source text: as §2, §3

corn (Zea mays) = assay: Test A postemergence; settings: for Plant response rating, Corn: 0 to 100 scale (0 no effect, 100 complete control)
Source text: as §2, §3

[14] = system: blackgrass (Alopecurus myosuroides); assay: Test A postemergence; settings: for Plant response rating, Blackgrass: 0 to 100 scale (0 no effect, 100 complete control)
Source text: as §2, §3

[15] = system: barnyardgrass (Echinochloa crus-galli); assay: Test A postemergence; settings: postemergence, 0 to 100 scale (0 no effect, 100 complete control)
Source text: as §2, §3

[16] = system: pigweed (Amaranthus retroflexus); assay: Test A postemergence; settings: for Plant response rating, Pigweed: 0 to 100 scale (0 no effect, 100 complete control)
Source text: as §2, §3

[17] = system: ragweed (common ragweed, Ambrosia elatior); assay: Test A postemergence; settings: for Plant response rating, Ragweed: 0 to 100 scale (0 no effect, 100 complete control)
Source text: as §2, §3

[18] = system: ryegrass, Italian (Italian ryegrass, Lolium multiflorum); assay: Test A postemergence; settings: for Plant response rating, Ryegrass, Italian: postemergence
Source text: as §2, §3

[19] = 125 g ai/ha, Preemergence, visual injury after approximately 10 d, 0 to 100 scale where 0 is no effect and 100 is complete control
[20] = 500 g ai/ha, preemergence, 0 to 100 scale, 0 = no effect, 100 = complete control
[21] = 125 g ai/ha, visual rating after approx. 10 d, 0 to 100 scale (0 no effect, 100 complete control)
[22] = 500 g ai/ha, visual injury, 0 to 100 scale (0 no effect, 100 complete control), approx. 10 d
[23] = 125 g ai/ha, postemergence, visual rating after approx. 10 d
[24] = 500 g ai/ha, postemergence, visual injury, approx. 10 d
[25] = Preemergence, 125 g ai/ha, 0 to 100 scale (0 no effect, 100 complete control)
[26] = 500 g ai/ha, preemergence, 0 to 100 scale where 0 is no effect and 100 is complete control
[27] = 125 g ai/ha, Postemergence, visual rating about 10 d after treatment
[28] = Postemergence, 500 g ai/ha, visual injury, approx. 10 d

SMILES: Cc1ccc(C2CNC(=O)C2C(=O)Nc2ccc(F)c(F)c2F)cc1C(F)(F)F (racemic) [Compound 681]
- Plant response rating, Sedge, Umbrella ([1]; 0 to 100 scale where 0 is no effect and 100 is complete control, 13 to 15 d): 0
- Plant response rating, Ducksalad ([2]; 13 to 15 d): 25
- Plant response rating, Barnyardgrass ([3]; 13 to 15 d): 35
- Plant response rating, Rice (rice (Oryra sativa); 13 to 15 d): 0
- Plant response rating, Kochia (Kochia (Kochia scoparia) [4]; [19]): 20
- Plant response rating, Kochia (Kochia (Kochia scoparia) [4]; [20]): 60
- Plant response rating, Foxtail, Giant [5, 19]: 90
- Plant response rating, Foxtail, Giant [5, 20]: 90
- Plant response rating, Barnyardgrass [6, 19]: 70
- Plant response rating, Barnyardgrass [6, 20]: 80
- Plant response rating, Pigweed [7, 19]: 0
- Plant response rating, Pigweed [7, 20]: 30
- Plant response rating, Ragweed [8, 19]: 0
- Plant response rating, Ragweed [8, 20]: 0
- Plant response rating, Ryegrass, Italian [9, 19]: 0
- Plant response rating, Ryegrass, Italian [9, 20]: 30
- Plant response rating, Galium [10, 21]: 30
- Plant response rating, Galium [10, 22]: 50
- Plant response rating, Kochia (Kochia (Kochia scoparia) [11]; [21]): 0
- Plant response rating, Kochia (Kochia (Kochia scoparia) [11]; [22]): 40
- Plant response rating, Wheat [12, 23]: 0
- Plant response rating, Wheat [12, 24]: 0
- Plant response rating, Foxtail, Giant [13, 21]: 0
- Plant response rating, Foxtail, Giant [13, 22]: 30
- Plant response rating, Corn (corn (Zea mays); [23]): 0
- Plant response rating, Corn (corn (Zea mays); [24]): 30
- Plant response rating, Blackgrass [14, 23]: 0
- Plant response rating, Blackgrass [14, 24]: 30
- Plant response rating, Barnyardgrass ([15]; 125 g ai/ha, visual rating after approx. 10 d): 40
- Plant response rating, Barnyardgrass ([15]; 500 g ai/ha, visual injury, approx. 10 d): 90
- Plant response rating, Pigweed [16, 23]: 0
- Plant response rating, Pigweed [16, 24]: 0
- Plant response rating, Ragweed [17, 23]: 0
- Plant response rating, Ragweed [17, 24]: 0
- Plant response rating, Ryegrass, Italian [18, 21]: 0
- Plant response rating, Ryegrass, Italian [18, 22]: 20

SMILES: Cc1cc([C@H]2CN(C)C(=O)[C@@H]2C(=O)Nc2ccccc2[S+](C)[O-])ccc1F (stereo partly drawn) [Compound 1313]
- pest or weed control at 250 g/ha ([1]; Cyperus difformis, 360 h, visually evaluated after 13 to 15 d, read-out: Plant response rating, Sedge, Umbrella (0 to 100 scale where 0 is no effect and 100 is complete control)): 0%
- Ducksalad plant response rating [2]: 70
- Barnyardgrass plant response rating [3]: 25
- pest or weed control at 250 g/ha (rice (Oryra sativa); Oryza sativa, read-out: Rice plant response rating): 0%
- pest or weed control at 500 g/ha (Kochia (Kochia scoparia) [4]; Bassia scoparia, pre-emergence, 240 h, 500 g ai/ha, preemergence, 0 to 100 scale where 0 is no effect and 100 is complete control, read-out: Kochia plant response rating): 100%
- pest or weed control at 125 g/ha (Kochia (Kochia scoparia) [4]; Bassia scoparia, pre-emergence, 240 h, Preemergence, 125 g ai/ha, 0 to 100 scale (0 no effect, 100 complete control), read-out: Plant response rating, Kochia): 90%
- Plant response rating, Foxtail, Giant [5, 25]: 20
- pest or weed control at 500 g/ha ([5]; Setaria faberi, pre-emergence, 240 h, 500 g ai/ha, preemergence, 0 to 100 scale where 0 is no effect and 100 is complete control, read-out: Foxtail, Giant plant response rating): 80%
- pest or weed control at 500 g/ha ([6]; Echinochloa crus-galli, pre-emergence, 240 h, 500 g ai/ha, preemergence, 0 to 100 scale where 0 is no effect and 100 is complete control, read-out: Barnyardgrass plant response rating): 100%
- pest or weed control at 125 g/ha ([6]; Echinochloa crus-galli, pre-emergence, 240 h, Preemergence, 125 g ai/ha, 0 to 100 scale (0 no effect, 100 complete control), read-out: Plant response rating, Barnyardgrass): 90%
- Pigweed plant response rating [7, 26]: 0
- pest or weed control at 125 g/ha ([7]; Amaranthus retroflexus, pre-emergence, 240 h, Preemergence, 125 g ai/ha, 0 to 100 scale (0 no effect, 100 complete control), read-out: Plant response rating, Pigweed): 0%
- Ragweed plant response rating [8, 26]: 0
- Plant response rating, Ragweed [8, 25]: 0
- Plant response rating, Ryegrass, Italian [9, 25]: 0
- Galium plant response rating (0 to 100 scale) [10, 27]: 0
- pest or weed control at 500 g/ha ([10]; Galium, post-emergence, 240 h, Postemergence, 500 g ai/ha, visual injury, 0 to 100 scale (0 no effect, 100 complete control), approx. 10 d, read-out: Plant response rating, Galium): 40%
- Kochia plant response rating (0 to 100 scale) (Kochia (Kochia scoparia) [11]; [27]): 20
- pest or weed control at 500 g/ha (Kochia (Kochia scoparia) [11]; Bassia scoparia, post-emergence, 240 h, Postemergence, 500 g ai/ha, visual injury, 0 to 100 scale (0 no effect, 100 complete control), approx. 10 d, read-out: Plant response rating, Kochia): 50%
- Wheat plant response rating (0 to 100 scale) [12, 27]: 0
- Plant response rating, Wheat [12, 28]: 0
- pest or weed control at 125 g/ha ([13]; Setaria faberi, post-emergence, 240 h, 125 g ai/ha, Postemergence, visual rating about 10 d after treatment, read-out: Foxtail, Giant plant response rating (0 to 100 scale)): 90%
- pest or weed control at 500 g/ha ([13]; Setaria faberi, post-emergence, 240 h, Postemergence, 500 g ai/ha, visual injury, 0 to 100 scale (0 no effect, 100 complete control), approx. 10 d, read-out: Plant response rating, Foxtail, Giant): 90%
- Corn plant response rating (0 to 100 scale) (corn (Zea mays); [27]): 0
- Plant response rating, Corn (corn (Zea mays); [28]): 0
- pest or weed control at 125 g/ha ([14]; Alopecurus myosuroides, post-emergence, 240 h, 125 g ai/ha, Postemergence, visual rating about 10 d after treatment, read-out: Blackgrass plant response rating (0 to 100 scale)): 0%
- Plant response rating, Blackgrass [14, 28]: 0
- pest or weed control at 125 g/ha ([16]; Amaranthus retroflexus, post-emergence, 240 h, 125 g ai/ha, Postemergence, visual rating about 10 d after treatment, read-out: Pigweed plant response rating (0 to 100 scale)): 0%
- Plant response rating, Pigweed [16, 28]: 0
- pest or weed control at 125 g/ha ([17]; Ambrosia artemisiifolia, post-emergence, 240 h, 125 g ai/ha, Postemergence, visual rating about 10 d after treatment, read-out: Ragweed plant response rating (0 to 100 scale)): 0%
- Plant response rating, Ragweed [17, 28]: 0
- pest or weed control at 125 g/ha ([18]; Lolium multiflorum, post-emergence, 240 h, 125 g ai/ha, Postemergence, visual rating about 10 d after treatment, read-out: Ryegrass, Italian plant response rating (0 to 100 scale)): 0%
- pest or weed control at 500 g/ha ([18]; Lolium multiflorum, post-emergence, 240 h, Postemergence, 500 g ai/ha, visual injury, 0 to 100 scale (0 no effect, 100 complete control), approx. 10 d, read-out: Plant response rating, Ryegrass, Italian): 0%
